Experimental data as given in patent US20240082192A1, “TOPICAL F[…] PREGABALIN” (EGIS GYÓGYSZERGYÁR ZRT., priority 2021, published 2024).

Key:
Mouse = conditions: topical 2.5% aqueous solution without other ingredients; cited from earlier work
[1] = Pharmacokinetic studies, blood level of pregabalin after oral or topical administration
human patient = conditions: same aqueous solution; cited from earlier work
[2] = compositions containing 1 and 3% of pregabalin; cited from earlier work
Wistar rats = test: Chronic constriction injury (CCI) rat model of neuropathy, paw withdrawal threshold with electronic von Frey device; format: in vivo; conditions: 16.66 mg/kg
Text: Furthermore, based on the article Bennett G J, at al (Pain., A peripheral mononeuropathy in rat that produces disorders of pain sensation like those seen in man. 1988 April; 33(1):87-107) we have developed a method for the examination of the compositions of the present invention. Thus, we have examined the compositions according to the present invention also with a different model for measuring the alleviation of the peripheral neuropathic pain also. Namely, we have carried out examinations on rats using Chronic constriction injury (CCI) model. Three weeks following nerve injury rats were assessed for hind paw mechanical withdrawal thresholds. The paw withdrawal threshold (PWT) was determined with an Electronic von Frey device according to the modified up-down method of Dixon (Efficient analysis of experimental observations., Annu Rev Pharmacol Toxicol. 1980; 20:441-62). […] The method and results are shown in example 3 and on FIG. 9.
Thus, the compositions of the present invention are effective in the treatment of neuropathic pain. […]
Briefly, under isoflurane anesthesia small blunt dissection was made into the skin of rat right thigh then three loosely constrictive ligatures were placed around common sciatic nerve (chronic constriction injury CCI). Three weeks following nerve injury rats were assessed for hind paw mechanical withdrawal thresholds. […]

For `CC(C)C[C@H](CN)CC(=O)O` [pregabalin], the “alleviating effect 6 hours after administration” value (Mouse) is listed as “the effect essentially disappeared”, the “time of maximum alleviating effect” value (Mouse) is listed as 1 h and the “amount entering the bloodstream during topical treatment” value [1] is listed as “very small amounts”. For the same compound, the “duration of reduction of neuropathic pain” value (human patient) was 6 h, the “time after which the pain alleviation effect decreased” value [2] was 1.5 to 2 h and the “reduction of hypersensitivity after oral administration” value (Wistar rats) was “not able to reduce hypersensitivity”.
